Results as given in US3949075A, “Anti-microbial compounds of 2', 4' substituted anilides of substituted nitrosalicylic acid for quadruped animals” (Ferro Corporation, priority 1974, dated 1976).
Where two headings read alike, the source gives them in different places.

What was measured:
Fasciola hepatica = experiment: Test for activity against liver flukes, Fasciola hepatica, in infected sheep; format: in vivo
Protocol: Test for activity against liver flukes were conducted as follows:
Eggs of Fasciola hepatica were collected from the bile of donor sheep. The eggs were embryonated and snails were infected (the genus Lymnaea serves as intermediate host) to produce Metacercariae which are the infective forms for sheep. Each sheep was infected with 250 metacercariae intraruminally. When the infection became patent in ca. 80 days, egg counts were carried out to determine the degree of worm burden. The liver was processed to recover F. hepatica in the untreated and treated sheep.
(§1) The data of the tables were generated using procedures previously described. The compounds tested are disubstituted and, except for Example 50 which is dibromo, are dichloro. Where the position for the substituents is other than 2' and 4', it is indicated. Under the indicated microorganisms, the values given in this and the following tables, should be read as: percentage of microorganism killed/dose in milligrams per kilogram of body weight. Under "Tolerance", the term "Tol." means "tolerated", "Tox." means "toxic", and "Sym." means "symptoms of toxic reaction", all at the dosage value which follows. It will be appreciated that there is no sharp toxicity end point in determining toxicity to living sheep.

sheep = experiment: Tolerance / toxicity in sheep; format: in vivo; set-up: key to Tolerance at 100 mg/kg / Tolerance at 50 mg/kg: "toxic" refers to death of sheep resulting from the use of the indicated compound at the indicated dosage; key to Tolerance: Tol.: tolerated; Tox.: toxic; Sym.: symptoms of toxic reaction; settings: for Tolerance at 50 mg/kg: Tables III and IV
Protocol: (§2) The results of tests on sheep in a manner described, supra, using compounds of the present invention are given in Table 1, Examples 5 through 13. The numbers in the column headed "Haemonchus (15 mg/kg)" refer to the percent of parasites destroyed or expelled when the indicated compound was introduced into the rumen of sheep at a dosage of 15 milligrams per kilogram of body weight. The values under "Tolerance (mg/kg)" refer to the highest test dosage in the milligrams of anthelmintic per kilogram of body weight at which the sheep developed no toxic symptoms. "Tol." is an abbreviation for "tolerated". The symbols R1 and R2 refer to those of Formula I in these and other following examples.
The importance of the 2',4' substitution on the anilide moiety of Formula I is illustrated by the case of the dichloro substitution as summarized in Table III. […] This has been mentioned briefly hereinabove. As used herein, "toxic" refers to death of sheep resulting from the use of the indicated compound at the indicated dosage.
as §1

Haemonchus contortus = experiment: Percent of Haemonchus destroyed or expelled in infected sheep (egg count after treatment); format: in vivo, Haemonchus contortus (in sheep); settings: for inhibition in vivo at 15 mg/kg / inhibition in vivo at 5 mg/kg / inhibition in vivo at 2 mg/kg: Haemonchus contortus; for Effectiveness at 15 mg/kg against Haemonchus: Table VI
Protocol: Two groups of sheep were used in the tests. One group was used as a non-medicated control, while the other group was treated with the compound under investigation. Helminth-free young lambs were infected with about 10,000 filariform larvae of Haemonchus contortus. In three weeks when the infection became apparent, egg counts were made to determine the density of the worm burden.
The egg count was carried out using the following modified Stoll method. Three grams of sheep feces were taken rectally from each animal and placed in a Stoll flask. To each flask, tap water was added to the top line. The fecal pellets were too hard to break down, the flasks were closed with rubber stoppers and kept in the refrigerator for several hours. The flasks were thoroughly shaken and a 1 ml. sample was drawn from the middle using a wide mouth pipette. This 1 ml. sample was transferred to an 8 ml. plastic tube, to which enough saturated sodium chloride solution was added to reach the rim. The tubes were then centrifuged for 10 minutes at 1500 r.p.m. Then sodium chloride solution was added with a medicine dropper forming a concave miniscus. A cover glass was carefully added and the tubes were kept in a refrigerator for ten to twenty minutes. During that period, the nematode ova flowed upward and adhered to the bottom of the cover glass slip. At the end of the 20-minute period, the cover slip was carefully detached from the miniscus and transferred to a microscopic slide. The ova were then counted under a microscope equipped with 10X ocular and 10X objective lens. Each ovum under the microscope represented 20 ova in the sample.
Animals with sufficiently high egg counts were taken out of the pool and housed in experimental pens. Since the salicylanilides of the present invention are water insoluble, the compounds were first ground using a mortar and pestle and then were placed in a carboxymethyl cellulose solution. The particles were further micronized ultrasonically. The compound was then administered to two or three animals by Oesophageal gavage. Control, untreated animals, received only the carboxymethyl cellulose solution in a similar manner. On the sixth and seventh day after treatment, fecal pellets were taken from the rectum of the control as well as the treated animals and egg counts were made.
as §2, §1

[1] = test system: Haemonchus and Fasciola hepatica; experiment: Dual activity against Haemonchus and Fasciola in sheep and therapeutic ratio; format: in vivo; settings: sheep, 5 mg./kg.
[2] = Fasciola hepatica, read-out: Fasciola hepatica, percentage of microorganism killed
[3] = Fasciola hepatica, sheep, Tables VIII-XI, read-out: Fasciola hepatica, percentage of microorganism killed
[4] = iv, sheep, 15 mg/kg, Tables III and IV, read-out: Effectiveness (%) at 15 mg/kg
[5] = sheep, 5 mg/kg, Tables VIII-XI, read-out: Haemonchus, percentage of microorganism killed
[6] = sheep, 5 mg/kg, Tables III and IV
[7] = Fasciola hepatica, sheep, 15 mg/kg, Tables VIII-XI, read-out: Fasciola hepatica, percentage of microorganism killed
[8] = sheep, 15 mg/kg, Tables VIII-XI, read-out: Haemonchus, percentage of microorganism killed

Cc1c([N+](=O)[O-])cc(C(C)(C)C)c(O)c1C(=O)Nc1cc(Cl)ccc1Cl [Example 24, reference compound]
inhibition in vivo at 15 mg/kg (Fasciola hepatica; [2]): 100% | inhibition in vivo at 5 mg/kg (Fasciola hepatica; [3]): 0% | activity against Fasciola, in words (Fasciola hepatica; sheep): no activity | Tolerance (sheep; 50 mg./kg., Tables VIII-X): Tol. | toxic effects at 50 mg./kg. (sheep; 50 mg/kg): shows toxic effects | Tolerance at 50 mg/kg (sheep; 50 mg/kg): toxic | inhibition in vivo at 15 mg/kg (Haemonchus contortus; [4]): 100% | inhibition in vivo at 15 mg/kg (Haemonchus contortus; read-out: Haemonchus, percentage of microorganism killed, sheep, 15 mg/kg, Tables VIII-XI): 100% | inhibition in vivo at 5 mg/kg (Haemonchus contortus; [5]): 61% | activity at 5 mg./kg. (Haemonchus contortus; sheep, 5 mg/kg): 61% | Effectiveness (%) at 5 mg/kg (Haemonchus contortus; [6]): 61% | clinical effectiveness against either parasite, in words [1]: would not be clinically effective against either parasite

Cc1c([N+](=O)[O-])cc(C(C)(C)C)c(O)c1C(=O)Nc1ccc(Cl)c(Cl)c1 [Example 25]
inhibition in vivo at 2 mg/kg (Fasciola hepatica; Fasciola hepatica, sheep, 2 mg/kg, Tables VIII-XI, read-out: Fasciola hepatica, percentage of microorganism killed): 0% | inhibition in vivo at 5 mg/kg (Fasciola hepatica; [3]): 95% | inhibition in vivo at 15 mg/kg (Fasciola hepatica; [7]): 100% | Tolerance (sheep; 15 mg./kg., Tables VIII, X): Tox. | Tolerance (sheep; 50 mg./kg., Tables VIII-X): Tox. | Tolerance at 50 mg/kg (sheep; 50 mg/kg): toxic | inhibition in vivo at 15 mg/kg (Haemonchus contortus; [4]): 100% | inhibition in vivo at 5 mg/kg (Haemonchus contortus; [5]): 20% | inhibition in vivo at 15 mg/kg (Haemonchus contortus; [8]): 100% | Effectiveness (%) at 5 mg/kg (Haemonchus contortus; [6]): 20%

Cc1c([N+](=O)[O-])cc(C(C)(C)C)c(O)c1C(=O)Nc1cc(Cl)cc(Cl)c1 [Example 26]
inhibition in vivo at 15 mg/kg (Fasciola hepatica; [2]): 100% | Tolerance (sheep; 40 mg./kg., Table VIII): Tol. | inhibition in vivo at 15 mg/kg (Haemonchus contortus; [4]): 67% | inhibition in vivo at 15 mg/kg (Haemonchus contortus; [8]): 67% | effectiveness against the parasites, in words (Haemonchus contortus; sheep): too low to be useful

Cc1ccc(Cl)cc1NC(=O)c1c(C)c([N+](=O)[O-])cc(C(C)(C)C)c1O [Example 29]
inhibition in vivo at 15 mg/kg (Haemonchus contortus; [4]): 0% | inhibition in vivo at 15 mg/kg (Haemonchus contortus; [8]): 0% | effectiveness against the parasites, in words (Haemonchus contortus; sheep): ineffective

Cc1cccc(Cl)c1NC(=O)c1c(C)c([N+](=O)[O-])cc(C(C)(C)C)c1O [Example 30]
inhibition in vivo at 15 mg/kg (Haemonchus contortus; [4]): 0% | inhibition in vivo at 15 mg/kg (Haemonchus contortus; [8]): 0% | effectiveness against the parasites, in words (Haemonchus contortus; sheep): ineffective

Cc1c([N+](=O)[O-])cc(C(C)(C)C)c(O)c1C(=O)Nc1cc(Cl)c(Cl)cc1Cl [Example 36]
Toxicity (printed in the column Effectiveness at 15 mg/kg against Haemonchus) (sheep; 15 mg/kg, Table VI): Toxic

Cc1c([N+](=O)[O-])cc(C(C)(C)C)c(O)c1C(=O)Nc1c(Cl)cc(Cl)cc1Cl [Example 37]
Effectiveness at 15 mg/kg against Haemonchus (Haemonchus contortus; sheep, 15 mg/kg): 73%

Cc1cc(NC(=O)c2c(C)c([N+](=O)[O-])cc(C(C)(C)C)c2O)c(C)cc1Cl [Example 39]
Effectiveness at 15 mg/kg against Haemonchus (Haemonchus contortus; sheep, 15 mg/kg): 0%

Cc1c([N+](=O)[O-])cc(C(C)(C)C)c(O)c1C(=O)Nc1ccc(Br)cc1Br [Example 50]
inhibition in vivo at 5 mg/kg (Fasciola hepatica; [3]): 100% | inhibition in vivo at 5 mg/kg (Haemonchus contortus; [5]): 99.8%

Cc1c([N+](=O)[O-])cc(C(C)(C)C)c(O)c1C(=O)Nc1cccc(Cl)c1Cl [Example 60]
inhibition in vivo at 15 mg/kg (Haemonchus contortus; [8]): 14%

Cc1cc(Br)ccc1NC(=O)c1c(C)c([N+](=O)[O-])cc(C(C)(C)C)c1O [Example 64]
inhibition in vivo at 5 mg/kg (Fasciola hepatica; [3]): 100% | Tolerance (sheep; 50 mg./kg., Tables VIII-X): Tox. | Tolerance (sheep; 50 mg./kg., Tables VIII-X, listed as 65): Sym. | inhibition in vivo at 2 mg/kg (Haemonchus contortus; read-out: Haemonchus, percentage of microorganism killed, sheep, 2 mg/kg, Tables VIII-XI): 38% | inhibition in vivo at 5 mg/kg (Haemonchus contortus; [5]): 100%

Cc1cc(I)ccc1NC(=O)c1c(C)c([N+](=O)[O-])cc(C(C)(C)C)c1O [Example 66]
inhibition in vivo at 5 mg/kg (Fasciola hepatica; [3]): 100% | inhibition in vivo at 15 mg/kg (Fasciola hepatica; [7]): 100% | Tolerance (sheep; 50 mg./kg., Tables VIII-X): Sym. | inhibition in vivo at 2 mg/kg (Haemonchus contortus; sheep, 2 mg/kg, Tables VIII-XI, read-out: Haemonchus, percentage of microorganism killed): 13% | inhibition in vivo at 5 mg/kg (Haemonchus contortus; [5]): 88%

Cc1ccc(NC(=O)c2c(C)c([N+](=O)[O-])cc(C(C)(C)C)c2O)c(Cl)c1 [Example 71]
inhibition in vivo at 15 mg/kg (Haemonchus contortus; [8]): 62%

Cc1ccc(NC(=O)c2c(C)c([N+](=O)[O-])cc(C(C)(C)C)c2O)cc1Cl [Example 72]
inhibition in vivo at 5 mg/kg (Haemonchus contortus; [5]): 0% | inhibition in vivo at 15 mg/kg (Haemonchus contortus; [8]): 80%
